Test results: US10485235B2, “Aryloxypyrimidinyl ethers as herbicides” (FMC Corporation, priority 2015, dated 2019)

Tests used:
Assay type in all cases: in vivo
[1] = test system: barnyardgrass (Echinochloa crus-galli); experiment: Test A preemergence, barnyardgrass; details: Echinochloa crus-galli, pre-emergence, 240 h, Preemergence, 0 to 100 scale (0 no effect, 100 complete control), read-out: Plant response rating, Barnyardgrass; for pest or weed control at 125 g/ha: 125 g ai/ha
In short: (§1)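 Compounds, formulated in a surfactant-containing solvent mixture that is non-phytotoxic, are sprayed onto soil after seeding (preemergence) or onto young plants, one to two leaves and 2 to 10 cm high (postemergence). Response is scored visually after around 10 days, where 0 means no effect and 100 means complete control.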

kochia (Kochia scoparia) [2] = experiment: Test A preemergence, kochia; details: Bassia scoparia, pre-emergence, 240 h, Preemergence, 0 to 100 scale (0 no effect, 100 complete control), read-out: Plant response rating, Kochia; for pest or weed control at 31 g/ha: 31 g ai/ha; for pest or weed control at 125 g/ha: 125 g ai/ha
In short: as §1

[3] = test system: ryegrass, Italian (Italian ryegrass, Lolium multiflorum); experiment: Test A preemergence, Italian ryegrass; details: Lolium multiflorum, pre-emergence, 240 h, Preemergence, 0 to 100 scale (0 no effect, 100 complete control), read-out: Plant response rating, Ryegrass, Italian; for pest or weed control at 31 g/ha: 31 g ai/ha; for pest or weed control at 125 g/ha: 125 g ai/ha
In short: as §1

[4] = test system: pigweed (Amaranthus retroflexus); experiment: Test A preemergence, pigweed; details: Amaranthus retroflexus, pre-emergence, 240 h, Preemergence, 0 to 100 scale (0 no effect, 100 complete control), read-out: Plant response rating, Pigweed; for pest or weed control at 31 g/ha: 31 g ai/ha; for pest or weed control at 125 g/ha: 125 g ai/ha
In short: as §1

kochia (Kochia scoparia) [5] = experiment: Test A postemergence, kochia; details: Bassia scoparia, post-emergence, 240 h, postemergence, 0 to 100 scale, 0 is no effect, 100 is complete control, approximately 10 days, read-out: Plant response rating, Kochia; for pest or weed control at 31 g/ha: 31 g ai/ha; for pest or weed control at 125 g/ha: 125 g ai/ha
In short: as §1

[6] = test system: ragweed (common ragweed, Ambrosia elatior); experiment: Test A postemergence, ragweed; details: Ambrosia artemisiifolia, post-emergence, 240 h, postemergence, 0 to 100 scale, 0 is no effect, 100 is complete control, approximately 10 days, read-out: Plant response rating, Ragweed; for pest or weed control at 31 g/ha: 31 g ai/ha; for pest or weed control at 125 g/ha: 125 g ai/ha
In short: as §1

[7] = test system: foxtail, giant (giant foxtail, Setaria faberii); experiment: Test A postemergence, giant foxtail; details: Setaria faberi, post-emergence, 240 h, postemergence, 0 to 100 scale, 0 is no effect, 100 is complete control, approximately 10 days, read-out: Plant response rating, Foxtail, Giant; for pest or weed control at 31 g/ha: 31 g ai/ha; for pest or weed control at 125 g/ha: 125 g ai/ha
In short: as §1

[8] = test system: pigweed (Amaranthus retroflexus); experiment: Test A postemergence, pigweed; details: Amaranthus retroflexus, post-emergence, 240 h, postemergence, 0 to 100 scale, 0 is no effect, 100 is complete control, approximately 10 days, read-out: Plant response rating, Pigweed; for pest or weed control at 31 g/ha: 31 g ai/ha; for pest or weed control at 125 g/ha: 125 g ai/ha
In short: as §1

[9] = test system: wheat (Triticum aestivum); experiment: Test A postemergence, wheat; details: Triticum aestivum, post-emergence, 240 h, postemergence, 0 to 100 scale, 0 is no effect, 100 is complete control, approximately 10 days, read-out: Plant response rating, Wheat; for plant injury at 31 g/ha: 31 g ai/ha; for plant injury at 125 g/ha: 125 g ai/ha
In short: as §1

[10] = test system: blackgrass (Alopecurus myosuroides); experiment: Test A postemergence, blackgrass; details: Alopecurus myosuroides, post-emergence, 240 h, postemergence, 0 to 100 scale, 0 is no effect, 100 is complete control, approximately 10 days, read-out: Plant response rating, Blackgrass; for pest or weed control at 31 g/ha: 31 g ai/ha; for pest or weed control at 125 g/ha: 125 g ai/ha
In short: as §1

[11] = test system: galium (catchweed bedstraw, Galium aparine); experiment: Test A postemergence, galium; details: Galium, post-emergence, 240 h, postemergence, 0 to 100 scale, 0 is no effect, 100 is complete control, approximately 10 days, read-out: Plant response rating, Galium; for pest or weed control at 31 g/ha: 31 g ai/ha; for pest or weed control at 125 g/ha: 125 g ai/ha
In short: as §1

rice (Oryza sativa) = experiment: Test B flooded paddy test, rice; details: Oryza sativa; 250 g ai/ha, Flood; visual rating after 13 to 15 days; scale 0 to 100, 0 is no effect, 100 is complete control; read-out: Plant response rating, Rice
In short: (§2)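 Visual injury scored 0 (no effect) to 100 (complete control) relative to controls 13-15 days after treatment in greenhouse. Treatment: test compound added into paddy water of pots flooded 3 cm over soil, holding 2-leaf-stage plants; water level kept constant.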

[12] = test system: sedge, umbrella (small-flower umbrella sedge, Cyperus difformis); experiment: Test B flooded paddy test, umbrella sedge; details: Cyperus difformis; 250 g ai/ha, Flood; visual rating after 13 to 15 days; scale 0 to 100, 0 is no effect, 100 is complete control; read-out: Plant response rating, Sedge, Umbrella
In short: as §2

[13] = test system: ducksalad (Heteranthera limosa); experiment: Test B flooded paddy test, ducksalad; details: Heteranthera limosa; 250 g ai/ha, Flood; visual rating after 13 to 15 days; scale 0 to 100, 0 is no effect, 100 is complete control; read-out: Plant response rating, Ducksalad
In short: as §2

[14] = test system: barnyardgrass (Echinochloa crus-galli); experiment: Test B flooded paddy test, barnyardgrass; details: Echinochloa crus-galli; 250 g ai/ha, Flood; visual rating after 13 to 15 days; scale 0 to 100, 0 is no effect, 100 is complete control; read-out: Plant response rating, Barnyardgrass
In short: as §2

SMILES	pest or weed control at 125 g/ha [1]	pest or weed control at 31 g/ha (kochia (Kochia scoparia) [2])	pest or weed control at 125 g/ha (kochia (Kochia scoparia) [2])	pest or weed control at 31 g/ha [3]	pest or weed control at 125 g/ha [3]	pest or weed control at 31 g/ha [4]	pest or weed control at 125 g/ha [4]	pest or weed control at 31 g/ha (kochia (Kochia scoparia) [5])	pest or weed control at 125 g/ha (kochia (Kochia scoparia) [5])	pest or weed control at 31 g/ha [6]	pest or weed control at 125 g/ha [6]	pest or weed control at 31 g/ha [7]	pest or weed control at 125 g/ha [7]	pest or weed control at 31 g/ha [8]	pest or weed control at 125 g/ha [8]	plant injury at 31 g/ha [9]	plant injury at 125 g/ha [9]	pest or weed control at 31 g/ha [10]	pest or weed control at 125 g/ha [10]	pest or weed control at 31 g/ha [11]	other results
Cc1cccc(Oc2ncc(Cl)cn2)c1OCC(F)(F)F [Compound 63]	0%	0%	0%	0%	0%	0%	0%	0%	0%	0%	0%	0%	0%	0%	0%	0%	0%	0%	0%	0%	pest or weed control at 31 g/ha ([1]; 31 g ai/ha): 0%; pest or weed control at 125 g/ha [11]: 0%; plant injury at 250 g/ha (rice (Oryza sativa)): 0%; pest or weed control at 250 g/ha [12]: 90%; pest or weed control at 250 g/ha [13]: 100%; pest or weed control at 250 g/ha [14]: 0%
FC(F)(F)COc1c(I)cccc1Oc1ncc(Cl)cn1 [Compound 65]	70%	20%	90%	0%	10%	50%	100%	80%	100%	0%	0%	10%	50%	70%	100%	0%	0%	0%	30%	30%	pest or weed control at 125 g/ha [11]: 50%; plant injury at 250 g/ha (rice (Oryza sativa)): 0%; pest or weed control at 250 g/ha [12]: 90%; pest or weed control at 250 g/ha [13]: 100%; pest or weed control at 250 g/ha [14]: 20%
